In patent publication US20210308131A1, “Treatment Regimen” (GlaxoSmithKline Intellectual Property Development Limited, priority 2020, published 2021):

Columns and labels:
[1] = test system: NG isolate from the Phase 2 clinical trial with ParC D86N mutation; assay type: cell-based, Neisseria gonorrhoeae
Description: 10 mL of an initial bacterial density of 10^6 colony forming units (CFU)/mL was inoculated into the hollow-fiber cartridge (Fibercell Systems, Frederick, Md.), utilizing modified FB medium.
Samples were collected for observation of simulated pharmacokinetic profiles and enumeration of bacterial burden over the study duration. All bacterial samples were plated on drug-free and agar supplemented with 2×the agar MIC value of each respective challenge compound.

[2] = Plasma and pulmonary (ELF, AM) pharmacokinetics after intravenous gepotidacin in healthy adult subjects; assay type: in vivo, human; settings: single IV infusion 1000 mg over 2 hours
Description: (§1) Gepotidacin exposures were assessed in plasma and other matrices, such as urine, saliva, epithelial lining fluid (ELF), Alveolar Macrophages (AM), cervix, rectum and pharynx, as follows: • 1. […] Urine, plasma, cervix, rectum and pharynx swabs: • In a Phase 2a, single-center, single-arm, open-label study in the Unites States from July 2018 to January 2019 (see Overcash et al., Open Forum Infectious Diseases, Volume 6, Issue Supplement 2, October 2019, Page S539, https://doi.org/10.1093/ofid/ofz360.1343, incorporated herein by reference in its entirety), a total of 22 female participants with uncomplicated Urinary Tract Infection (uUTI) were enrolled and evaluated for pharmacokinetics (PK), safety, and clinical efficacy. […] Gepotidacin exposures in urine, cervix, rectum and pharynx were assessed.
Plasma, Epithelial Lining Fluid (ELF) and Alveolar Macrophage (AM) PK were assessed following a single IV infusion of 1000 mg gepotidacin over 2 hours. […]

[3] = Single-dose PK (saliva, urine, plasma) in subjects with renal impairment and matched controls; assay type: in vivo, human
Description: Gepotidacin exposures were assessed in plasma and other matrices, such as urine, saliva, epithelial lining fluid (ELF), Alveolar Macrophages (AM), cervix, rectum and pharynx, as follows: • 1. Plasma, Epithelial Lining Fluid (ELF) and Alveolar Macrophage (AM) samples: A study to evaluate plasma and pulmonary pharmacokinetics (PK) following intravenous administration of gepotidacin in healthy adult subjects was conducted (see M Hossain, EF Dumont. Population Pharmacokinetic Modeling of Plasma and Epithelial Lining Fluid Data for a Novel Antimicrobial Compound. 54th Annual Interscience Conference on Antimicrobial Agents and Chemotherapy Meeting, 5-9 September 2014, Washington, D.C., USA, incorporated herein by reference in its entirety) • 2. Saliva, Urine and plasma samples: • a. A single-dose study to assess the PK of oral gepotidacin in male and female adult participants with varying degrees of hepatic impairment and in matched control participants with normal hepatic function (J. Hands et al. Pharmacokinetics of Gepotidacin in Subjects with Hepatic Impairment. ID Week, 2-6 Oct. 2019, Washington D.C., USA, incorporated herein by reference in its entirety) • b. A single-dose study to assess the PK of gepotidacin in adult subjects with varying degrees of renal impairment and in matched control subjects with normal renal function • 3. Urine, plasma, cervix, rectum and pharynx swabs: • In a Phase 2a, single-center, single-arm, open-label study in the Unites States from July 2018 to January 2019 (see Overcash et al., Open Forum Infectious Diseases, Volume 6, Issue Supplement 2, October 2019, Page S539, https://doi.org/10.1093/ofid/ofz360.1343, incorporated herein by reference in its entirety), a total of 22 female participants with uncomplicated Urinary Tract Infection (uUTI) were enrolled and evaluated for pharmacokinetics (PK), safety, and clinical efficacy. Participants were confined to the clinic from baseline (Days −1 to 1 predose) through on-therapy (Days 1 to 5) and returned as outpatients for test-of-cure (TOC; Days 10 to 13) and follow-up (Day 28±3). Participants received oral gepotidacin 1,500 mg twice daily (BID) for 5 days. […] The majority of participants were white, age ranged from 19 to 60 years, and body mass index ranged from 20.9 to 37.9 kg/m^2. The number of past uUTI episodes ranged from 0 to 10 over the past 12 months across participants; the majority of participants reported episodes. […] Gepotidacin exposures in urine, cervix, rectum and pharynx were assessed.
(§2) Saliva, Urine and Plasma concentrations were determined after administration of gepotidacin 750 mg IV (healthy and renally impaired subjects) and 1500 mg orally (healthy and hepatically impaired subjects, as well as uUTI patients). […]

[4] = Single-dose PK (saliva, urine, plasma) in participants with hepatic impairment and matched controls; assay type: in vivo, human; settings: 1500 mg orally
Description: as §1, §2

[5] = Phase 2a study in female participants with uUTI: urine, plasma, cervix, rectum and pharynx swab PK and safety; assay type: in vivo, human
Description: as §1, §2

[6] = Safety and pharmacokinetics in healthy adults and adolescents (Example 3); assay type: in vivo, human
Description: Healthy adults and adolescents within the age ranges of 19-64 and 12-17 years old, respectively, participated in the study.
In Part 1 of the study, gepotidacin was administered with food to healthy adults 18 years) in period 1 (1500 mg oral single dose), followed by period 2 (3000 mg×2 oral doses Q12 h) and period 3 (3000 mg×2 oral doses Q6 h).
In Part 2 of the study, gepotidacin was administered with food to adolescents (12 to <18 years) at the same dose regimens as period 1 (1500 mg oral single dose) and period 3 (3000 mg×2 oral doses Q6 h).

Neisseria gonorrhoeae = settings: cited from earlier work
[7] = Period 1, 1500 mg oral single dose

## CO/N=C(\C(=O)N[C@@H]1C(=O)N2C(C(=O)O)=C(CSc3nc(=O)c(=O)[nH]n3C)CS[C@H]12)c1csc(N)n1 [ceftriaxone, reference compound]
[1]; simulated ciprofloxacin 0.5 g oral, ceftriaxone 0.25 g intramuscular, isolate ciprofloxacin-resistant, ceftriaxone-susceptible
  performance of control in hollow fibre infection model: performed as expected

## O=c1ccc2ncc(=O)n3c2n1C[C@H]3CN1CCC(NCc2cc3c(cn2)OCCC3)CC1 [gepotidacin, (2R)-2-({4-[(3,4-Dihydro-2H-pyrano[2,3-c]pyridin-6-ylmethyl)amino]-1-piperidinyl}methyl)-1,2-dihydro-3H,8H-2a,5,8a-triazaacenaphthylene-3,8-dione]
[2]
  AM AUC(0-12) relative to ELF: ~97 fold
  AM Cmax relative to ELF: approximately 120 fold
[3]; ESRD subjects not on hemodialysis
  gepotidacin dose removed in the urine (fe %): 7.9%
[3]; ESRD subjects on hemodialysis
  gepotidacin dose excreted in the urine: Less than 2%
[3]; moderate renal impairment subjects
  gepotidacin dose removed in the urine (fe %): 22.1%
[3]; normal renal function subjects
  gepotidacin dose removed in the urine (fe %): 37.4%
[4]; moderate hepatic impairment
  urinary exposure (AUC[0-48]) relative to matched healthy controls: approximately 3.2 fold
[4]; severe hepatic impairment
  urinary exposure (AUC[0-48]) relative to matched healthy controls: ~3.9 fold
[5]; 1500 mg BID, uUTI patients, swabs and plasma
  rank order of gepotidacin free-drug concentrations: highest in rectal tissue; followed by cervical tissue, which was similar to plasma concentrations; followed by pharyngeal tissue
[5]; oral 1,500 mg BID for 5 days, 22 female uUTI participants
  discontinuations due to adverse events: no discontinuations due to adverse events
[1]; gepotidacin-resistant subpopulation on Day 7
  doses preventing amplification of resistance within the system: 4.5 g
[1]; including 2 x 3 g doses 8 or 12 hours apart
  total daily doses that prevented resistance amplification to gepotidacin: ≥ 4500 mg
[1]; simulated single oral dose free-drug plasma profiles, 0.75 to 12 g
  doses sterilizing the system over the seven-day period: ≥ 4.5 g
[6]; 1500 mg oral single dose, adults and adolescents, few mild GI AEs
  tolerability: generally well tolerated
[6]; [7]
  maximum concentration (Cmax), adolescents compared to adults: similar
  median area under the curve (AUC), adolescents compared to adults: slightly higher
[6]; Period 3, 3000 mg x 2 Q6 h
  AUC following the second dose, adolescents versus adults: higher
  Cmax following the second dose, adolescents versus adults: similar
[6]; adolescents, 3000 mg x 2 Q6 h
  subjects above the Cmax value of potential clinical concern: 58%
[6]; adults, 3000 mg
  AUC0-t following the first dose, Q12 h versus Q6 h: similar
[6]; adults, 3000 mg x 2
  accumulation ratios, Q6 h compared to Q12 h: Higher
[6]; adults, 3000 mg x 2 Q6 h
  subjects above the Cmax value of potential clinical concern: 46%
[6]; adults, 3000 mg x 2 Q12 h
  subjects above the Cmax value of potential clinical concern: 15%
[6]; in vivo
  safety issues related to QT or AchE-I: No observed safety issues related to QT or AchE-I
Neisseria gonorrhoeae; number of the 8 participants with D86N-positive baseline urogenital NG isolates
  microbiological successes (bacterial eradication): 5
Neisseria gonorrhoeae; single oral doses of 1.5 g and 3 g
  efficacy (bacterial eradication) against urogenital infection caused by NG: ≥ 95%
Neisseria gonorrhoeae; single oral doses of 1500 and 3000 mg
  safety signals: no unexpected safety signals
Neisseria gonorrhoeae; total number, single oral 1500 or 3000 mg
  participants who failed therapy at the urogenital body site: 3
